# Measurements from article PMC6332076, “Plasma Pharmacokinetics of Polyphenols in a Traditional Japanese Medicine, Jumihaidokuto, Which Suppresses Propionibacterium acnes-Induced Dermatitis in Rats” (Molecules, 2015).
# System: Propionibacterium acnes (P. acnes)-induced dermatitis
# Experiment: P. acnes-induced acute dermatitis, ear thickness
# Assay type: in vivo, rat
# Conditions: rats, intradermal P. acnes 0.14 mg/ear; JHT 0.5 g/kg p.o. 1 h before and 6 h after injection; PDN 10 mg/kg p.o.; P. acnes + DW group 181%; N = 5
# Description: Figure 1 Suppression of Propionibacterium acnes (P. acnes)-induced dermatitis in rats by jumihaidokuto (JHT) administration. Dermatitis was induced in rats by injection of P. acnes (0.14 mg/50 μL/ear) into the pinna. The ear thickness was measured at 0 and 24 h after the injection. JHT suspended in distilled water (DW) was administered orally at a dose of 0.5 g/10 mL/kg at 1 h before and 6 h after the injection. Prednisolone (PDN, 10 mg/10 mL/kg) was used as a reference drug. Data represent the relative ear thickness, which was standardized against the previous values before the injection. N = 5. ^## p < 0.01 vs. saline + DW group (Student’s t-test), ** p < 0.01 significant vs. P. acnes + DW group (Dunnett’s test). […]
# P. acnes-induced dermatitis was induced using the procedure described previously with a minor modification. […] The ear thickness was measured using a dial thickness gauge micrometer (Ozaki MFG Co., Tokyo, Japan) at 0 and 24 h after the injection. All data on the increase in ear thickness were expressed as a percentage of the previous value in each individual rat, and as the mean ± S.E. Statistical significance was evaluated by one-way analysis of variance, followed by the Dunnett’s multiple comparisons or unpaired Student’s t-test. […]
smiles,measurement,value
"C[C@]12C=CC(=O)C=C1CC[C@@H]1[C@@H]2[C@@H](O)C[C@@]2(C)[C@H]1CC[C@]2(O)C(=O)CO [PDN, Prednisolone]",increase in ear thickness in a 24 h period compared with that prior to injection,123%
